From PMC4978154, “Phase I metabolites of mephedrone display biological activity as substrates at monoamine transporters” (British Journal of Pharmacology, 2016)
Read-outs that look alike come from different tables or passages of the source.

How the values were obtained:
[1] = biological target: T1, hNET (Homo sapiens, UniProt P23975); assay: Transporter uptake inhibition in HEK293 cells expressing hNET; format: cell-based; settings: [3H]-MPP+ uptake; for IC50: mean (95% confidence interval)
T1 construct: expressed in transfected cells
T1 sequence (P23975 whole entry): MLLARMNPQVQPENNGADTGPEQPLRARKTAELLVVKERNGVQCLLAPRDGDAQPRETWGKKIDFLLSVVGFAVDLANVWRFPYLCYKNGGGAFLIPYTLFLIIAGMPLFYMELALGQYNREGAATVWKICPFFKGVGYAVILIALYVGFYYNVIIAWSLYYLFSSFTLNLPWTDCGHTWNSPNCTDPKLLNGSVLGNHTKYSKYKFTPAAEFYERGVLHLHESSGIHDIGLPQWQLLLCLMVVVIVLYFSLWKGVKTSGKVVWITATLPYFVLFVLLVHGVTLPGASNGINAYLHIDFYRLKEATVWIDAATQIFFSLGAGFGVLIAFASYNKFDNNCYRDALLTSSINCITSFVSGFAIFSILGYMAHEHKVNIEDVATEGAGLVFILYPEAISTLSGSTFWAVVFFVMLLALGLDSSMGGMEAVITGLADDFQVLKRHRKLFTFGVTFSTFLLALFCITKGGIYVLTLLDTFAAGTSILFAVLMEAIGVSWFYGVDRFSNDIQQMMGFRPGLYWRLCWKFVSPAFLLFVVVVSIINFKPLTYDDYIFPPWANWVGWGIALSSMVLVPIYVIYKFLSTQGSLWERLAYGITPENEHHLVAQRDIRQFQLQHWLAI
Description: The generation of HEK293 cells stably expressing the human isoforms of DAT (hDAT) and NET (hNET) was carried out as described previously (Scholze et al., 2002). For SERT, the human isoform (hSERT) was cloned in frame with yellow fluorescent protein (Schmid et al., 2001). The generation of a stable cell line was performed as described by Hilber and colleagues (Hilber et al., 2005). HEK293 cells were maintained in humidified atmosphere (5% CO2, 37°C) in DMEM, supplemented with 10% heat‐inactivated FBS and penicillin (100 u 100 mL^−1) and streptomycin (100 μg 100 mL^−1). Selection pressure was maintained by adding geneticin (50 μg·mL^−1) to the cell culture media.
Uptake experiments were conducted as described previously (Sitte et al., 2001) with minor modifications. In brief, HEK293 cells expressing hDAT, hNET or hSERT were seeded into poly‐D‐lysine (PDL) coated 96‐well plates at a density of 40 000 cells per well. The next day, DMEM was aspirated and replaced with Krebs HEPES buffer (KHB, 25 mM HEPES, 120 mM NaCl, 5 mM KCl, 1.2 mM CaCl2, and 1.2 mM MgSO4, 5 mM D‐glucose, pH adjusted to 7.3 with NaOH) (200 μL per well), and cells were pre‐incubated with various concentrations of mephedrone or its metabolites for 5 min (50 μL per well). Subsequently, 0.1 μM of [^3H]‐5‐HT or 0.02 μM of [^3H]‐MPP^+ were added, and uptake was terminated after 1 (hSERT) or 3 min (hDAT, hNET) by washing the cells with 200 μL of ice‐cold KHB. Cells were lysed with 1% SDS, and tritium uptake was determined by scintillation counting. Nonspecific uptake was determined in the presence of 10 μM paroxetine (hSERT) or 10 μM mazindol (hDAT and hNET).
Calculations were performed using Microsoft Excel® 2010 (Microsoft Corporation, Redmond, WA, USA) and […] PRISM 5.0. (GraphPad Software Inc., La Jolla, CA, USA). IC50 values for uptake inhibition and EC50 values for release were determined by nonlinear regression fits. Release data expressed as AUC were analysed by one‐way ANOVA followed by Bonferroni's multiple comparison test. Microdialysis and locomotor data were analysed by two‐way ANOVA (drug treatment × time) followed by Bonferroni's test. The effect of monensin treatment on basal efflux of tritiated substrate was analysed with the Mann–Whitney test. P values less than 0.05 (i.e. P < 0.05) were considered significant. The data and statistical analysis comply with the recommendations on experimental design and analysis in pharmacology (Curtis et al., 2015).

[2] = test system: extracellular dopamine in rat nucleus accumbens; assay: Microdialysis in rat nucleus accumbens, dialysate dopamine; format: in vivo; settings: versus saline
Description: (§1) In vivo microdialysis procedures were carried out as previously described with minor modifications (Baumann et al., 2012). Briefly, male rats anaesthetized with sodium pentobarbital (60 mg·kg^−1, i.p.) received surgically implanted jugular catheters, and intracerebral guide cannulae aimed at the nucleus accumbens (AP +1.6 mm, ML −1.7 mm relative to bregma; −6.2 mm relative to dura) (Paxinos and Watson, 2007). After a 7–10 day recovery, each rat was placed into a chamber equipped with photobeams for the detection of motor parameters (TruScan, Harvard Apparatus, Holliston, MA, USA) and allowed to acclimatize overnight. Food and water were available ad libitum during the acclimatization period. On the following morning, catheters were attached to PE 50 extension tubes, and 0.5 × 2 mm microdialysis probes (CMA/12, Harvard Apparatus, Holliston, MA, USA) were inserted into the guide cannulae. Ringers' solution (150 mM NaCl, 2.8 mM KCl and 2.0 mM CaCl2) was perfused through the probes at 0.6 μL·min^−1 for 3 h. To commence experiments, dialysate samples ([…]) were collected at 20 min intervals, and drug or saline treatments were given after three baseline samples were obtained. Rats received two sequential i.v. injections of mephedrone or its metabolites, with 1 mg·kg^−1 administered at time zero, followed by 3 mg·kg^−1 60 min later. Saline was administered using the same schedule in a separate group of rats. Dialysate concentrations of dopamine and 5‐HT were quantified using HPLC coupled to electrochemical detection (Baumann et al., 2012). Chromatographic data were exported to an Empower software system (Waters, Inc., Milford, MA, USA) for peak identification, integration and analysis.
(§2) Correct probe placements were assessed after the microdialysis experiments. Rats were killed by CO2 narcosis then decapitated. Brains were quickly removed and immersion fixed in 10% paraformaldehyde for 1 week. Subsequently, brains were sectioned on a cryostat, and the location of each probe tip was verified by inspection of photographic images of the brain taken with a digital camera using the macro lens setting.
(§3) Calculations were performed using Microsoft Excel® 2010 (Microsoft Corporation, Redmond, WA, USA) and GRAPHPAD PRISM 5.0. (GraphPad Software Inc., La Jolla, CA, USA). IC50 values for uptake inhibition and EC50 values for release were determined by nonlinear regression fits. Release data expressed as AUC were analysed by one‐way ANOVA followed by Bonferroni's multiple comparison test. Microdialysis and locomotor data were analysed by two‐way ANOVA (drug treatment × time) followed by Bonferroni's test. The effect of monensin treatment on basal efflux of tritiated substrate was analysed with the Mann–Whitney test. P values less than 0.05 (i.e. P < 0.05) were considered significant. The data and statistical analysis comply with the recommendations on experimental design and analysis in pharmacology (Curtis et al., 2015).

[3] = test system: extracellular 5-HT in rat nucleus accumbens; assay: Microdialysis in rat nucleus accumbens, dialysate 5-HT; format: in vivo; settings: for increase of dialysate 5-HT above baseline: rat nucleus accumbens
Description: as §1, §2, §3

[4] = test system: rats; assay: Locomotor activity (photobeam breaks) during microdialysis; format: in vivo; settings: rat; for effect on motor behaviour (activity): 1 and 3 mg·kg−1 i.v.; for effect on motor activity: 3 mg·kg−1 i.v.
Description: as §1, §3

[5] = 3 mg·kg−1 i.v. (60 min after 1 mg·kg−1)
[6] = IC50 on uptake mediated by hNET

Structure (SMILES)	efficacy of uptake inhibition at hNET [1]	IC50 ([1]; read-out: IC50 on uptake mediated by hNET) [µM]	effect on dialysate dopamine ([2]; 1 mg·kg−1 i.v.)	effect on dialysate dopamine [2, 5]	effect on extracellular neurotransmitters in the brain (5-HT) ([3]; systemic administration, 1 and 3 mg·kg−1 i.v., rat)	effect on motor behaviour (activity) [4]	IC50 [1, 6] [µM]	increase of dialysate 5-HT above baseline ([3]; 1 mg·kg−1 i.v.) [fold]	increase of dialysate 5-HT above baseline [3, 5] [fold]	effect on motor activity [4]
CNC(C)C(=O)c1ccc(CO)cc1.Cl (stereo not drawn) [4‐OH‐mephedrone, 1‐(4‐(hydroxymethyl)phenyl)‐2‐(methylamino)propan‐1‐one hydrochloride]	fully efficacious inhibitors of uptake	4.85	no significant impact	no significant impact	no significant effect	did not	–	–	–	–
CNC(C)C(=O)c1ccc(C)cc1.Cl (stereo not drawn) [Mephedrone, 2‐Methylamino‐1‐(p‐tolyl)propan‐1‐one hydrochloride]	fully efficacious inhibitors of uptake	–	increased dopamine	elevated dopamine	–	increased activity	2.77	15	25	significantly stimulated motor activity
Cc1ccc(C(=O)C(C)N)cc1.Cl (stereo not drawn) [Nor‐mephedrone, 2‐amino‐1‐(p‐tolyl)propan‐1‐one hydrochloride]	fully efficacious inhibitors of uptake	–	–	elevated dopamine	–	increased activity	5.46	15	25	significantly stimulated motor activity
